# Experimental data published in patent US9924714B2, “Impregnatable matrix of plant, animal or synthetic origin or mixtures of same, containing a uniformly distributed antimicrobial compound, method for impregnating said matrix with a compound, and use thereof in the production of antimicrobial elements” (COMPAÑIA MINERA SAN GERONIMO, priority 2013, dated 2018).
# Key:
# Type in all cases: cell-based
# [1] = test system: Enterococcus faecalis ATCC29212; test: Sensidisc and thin cloth growth inhibition test (Example 3)
# Procedure: (§1) In this example, the antimicrobial activity of the invention was determined by testing on sensidiscs. On order to do this, they were prepared 5 mm filter paper discs, embedded with various concentrations of compound Cu4SO4(OH)6 (Alkaline Copper Sulfate) of the study dissolved in DMSO (0 μg, 200 μg, 400 μg, 600 μg, 800 μg). In addition, pieces of cloth of about 2×2 cm were prepared and embedded with the new product. Paper discs and fabric were deposited on a background lawn, which was performed as follows:
# (§2) From a bacterial culture of 16 hours, with the strain of interest, it was performed a 1/30 dilution of the culture with fresh medium and incubated under stirring at 37° C. until reaching the exponential growth phase (D0600 nm 0.4-0.5). It was taken an aliquot of 100 μL of the culture in exponential phase, and deposited in 4 mL of Mueller-Hinton soft agar at 0.8% (previously melted and stabilized at 50° C.). The mixture was deposited on a Petri dish with 20 mL of Mueller-Hinton agar base. Once the agar was gelled, each of the discs with different amounts of the test compound were deposited on the background lawn, and incubated at 37° C. during 48 hours.
# (§3) Experiments were performed in triplicate in independently, using as negative control discs with the solvent DMSO alone and cloth without the product of study. As positive control were used commercial discs used with 30 μg of antibiotic Kanamycin (Km).
# [2] = test system: Klebsiella pneumoniae ATCC4352; test: as above
# Procedure: as §1, §2, §3
# [3] = test system: Pseudomonas aeruginosa PAOI; test: as above
# Procedure: as §1, §2, §3
# [4] = test system: Staphylococcus aureus ATCC25923; test: as above
# Procedure: as §1, §2, §3
# [5] = test system: Streptococcus pneumonia ATCC14325; test: as above
# Procedure: as §1, §2, §3
# [6] = test system: Streptococcus pyogenes ATCC2367; test: as above
# Procedure: as §1, §2, §3
# [7] = test system: Acinetobacter baumannii UDP456; test: as above; parameters: unit not given here
# Procedure: as §1, §2, §3
# [8] = test system: Citrobacter freundii ISP1949/99; test: as above; parameters: unit not given here
# Procedure: as §1, §2, §3
# [9] = test system: Enterobacter aerogenes ATCC13048; test: as above; parameters: unit not given here
# Procedure: as §1, §2, §3
# [10] = test system: Enterococcus faecium ISP133/04; test: as above; parameters: unit not given here
# Procedure: as §1, §2, §3
# [11] = test system: Escherichia coli ATCC25922; test: as above; parameters: unit not given here
# Procedure: as §1, §2, §3
# [12] = test system: Staphylococcus epidermidis; test: as above; parameters: unit not given here
# Procedure: as §1, §2, §3
# [13] = test system: all bacterial strains tested; test: Antibacterial activity of alkaline copper sulfate, summary (Example 3); details: summary in words of Table 5
# Procedure: as §1, §2
# Experiments were performed in triplicate in independently, using as negative control discs with the solvent DMSO alone and cloth without the product of study. […]
# [14] = test system: Staphylococcus aureus ATCC25923; test: Disc growth inhibition halo test (Example 2)
# [15] = test system: Staphylococcus epidermidis ATCC25923; test: Disc growth inhibition halo test (Example 2)
# [16] = test system: Streptococcus pneumoniae ATCC14325; test: Disc growth inhibition halo test (Example 2)
# [17] = test system: Streptococcus pyogenes ATCC2367; test: Disc growth inhibition halo test (Example 2)
# [18] = test system: Enterococcus faecium ISP133/04; test: Disc growth inhibition halo test (Example 2)
# [19] = test system: Enterococcus faecalis ATCC29212; test: Disc growth inhibition halo test (Example 2)
# [20] = test system: Escherichia coli ATCC25922; test: Disc growth inhibition halo test (Example 2)
# [21] = test system: Klebsiella pneumoniae ATCC4352; test: Disc growth inhibition halo test (Example 2)
# [22] = test system: Pseudomonas aeruginosa PAOI; test: Disc growth inhibition halo test (Example 2)
# [23] = test system: Acinetobacter baumanii UDP456; test: Disc growth inhibition halo test (Example 2)
# [24] = test system: Citrobacter freundii ISP1949/99; test: Disc growth inhibition halo test (Example 2)
# [25] = test system: Enterobacter aerogenes ATCC13048; test: Disc growth inhibition halo test (Example 2)
# 12 bacterial strains = test: Antibacterial activity of four copper compounds, summary (Example 2); details: discs 200-800 μg, summary in words
structure (smiles),measurement,setting,value
"O=S(=O)([O-])[O-].[Cu+2].[Cu+2].[Cu+2].[Cu+2].[OH-].[OH-].[OH-].[OH-].[OH-].[OH-] [Alkaline Copper Sulphate, Alkaline Copper Sulfate]",Growth inhibition zone,[1]; 200 μg on 5 mm disc,6.0 ± 1.0 mm
same,Growth inhibition zone,[1]; 400 μg on 5 mm disc,6.0 ± 1.0 mm
same,Growth inhibition zone,[1]; 600 μg on 5 mm disc,6.0 ± 1.0 mm
same,Growth inhibition zone,[1]; 800 μg on 5 mm disc,6.0 ± 1.0 mm
same,Growth inhibition zone,[2]; 200 μg on 5 mm disc,7.3 ± 0.6 mm
same,Growth inhibition zone,[2]; 400 μg on 5 mm disc,8.7 ± 0.6 mm
same,Growth inhibition zone,[2]; 600 μg on 5 mm disc,9.7 ± 0.6 mm
same,Growth inhibition zone,[2]; 800 μg on 5 mm disc,10.0 mm
same,Growth inhibition zone,[3]; 200 μg on 5 mm disc,6.3 ± 1.5 mm
same,Growth inhibition zone,[3]; 400 μg on 5 mm disc,6.7 ± 1.2 mm
same,Growth inhibition zone,[3]; 600 μg on 5 mm disc,8.3 ± 0.6 mm
same,Growth inhibition zone,[3]; 800 μg on 5 mm disc,8.3 ± 1.7 mm
same,Growth inhibition zone,[4]; 200 μg on 5 mm disc,6.0 ± 1.0 mm
same,Growth inhibition zone,[4]; 400 μg on 5 mm disc,10.3 ± 0.6 mm
same,Growth inhibition zone,[4]; 600 μg on 5 mm disc,11.7 ± 0.6 mm
same,Growth inhibition zone,[4]; 800 μg on 5 mm disc,14.0 ± 1.0 mm
same,Growth inhibition zone,[5]; 200 μg on 5 mm disc,5.0 ± 1.0 mm
same,Growth inhibition zone,[5]; 400 μg on 5 mm disc,8.0 ± 0.7 mm
same,Growth inhibition zone,[5]; 600 μg on 5 mm disc,9.0 ± 1.0 mm
same,Growth inhibition zone,[5]; 800 μg on 5 mm disc,11.0 ± 1.2 mm
same,Growth inhibition zone,[6]; 200 μg on 5 mm disc,5.0 ± 1.0 mm
same,Growth inhibition zone,[6]; 400 μg on 5 mm disc,6.0 ± 1.0 mm
same,Growth inhibition zone,[6]; 600 μg on 5 mm disc,7.0 ± 1.2 mm
same,Growth inhibition zone,[6]; 800 μg on 5 mm disc,8.0 ± 1.4 mm
same,Growth inhibition zone,[7]; 200 μg on 5 mm disc,11.7 ± 0.6
same,Growth inhibition zone,[7]; 400 μg on 5 mm disc,15.7 ± 0.6
same,Growth inhibition zone,[7]; 600 μg on 5 mm disc,17.0 ± 1.0
same,Growth inhibition zone,[7]; 800 μg on 5 mm disc,19.7 ± 0.6
same,Growth inhibition zone,[8]; 200 μg on 5 mm disc,8.0 ± 1.0
same,Growth inhibition zone,[8]; 400 μg on 5 mm disc,10.7 ± 1.5
same,Growth inhibition zone,[8]; 600 μg on 5 mm disc,11.3 ± 0.6
same,Growth inhibition zone,[8]; 800 μg on 5 mm disc,11.3 ± 1.5
same,Growth inhibition zone,[9]; 200 μg on 5 mm disc,7.3 ± 1.5
same,Growth inhibition zone,[9]; 400 μg on 5 mm disc,9.7 ± 1.5
same,Growth inhibition zone,[9]; 600 μg on 5 mm disc,9.7 ± 0.6
same,Growth inhibition zone,[9]; 800 μg on 5 mm disc,9.7 ± 1.5
same,Growth inhibition zone,[10]; 200 μg on 5 mm disc,6.0 ± 1.0
same,Growth inhibition zone,[10]; 400 μg on 5 mm disc,6.0 ± 1.0
same,Growth inhibition zone,[10]; 600 μg on 5 mm disc,6.0 ± 1.0
same,Growth inhibition zone,[10]; 800 μg on 5 mm disc,6.0 ± 1.0
same,Growth inhibition zone,[11]; 200 μg on 5 mm disc,13.3 ± 1.4
same,Growth inhibition zone,[11]; 400 μg on 5 mm disc,13.0 ± 0.7
same,Growth inhibition zone,[11]; 600 μg on 5 mm disc,15.0 ± 0.7
same,Growth inhibition zone,[11]; 800 μg on 5 mm disc,13.3 ± 0.7
same,Growth inhibition zone,[12]; 200 μg on 5 mm disc,12.0 ± 0.6
same,Growth inhibition zone,[12]; 400 μg on 5 mm disc,14.3 ± 0.6
same,Growth inhibition zone,[12]; 600 μg on 5 mm disc,13.7 ± 1.5
same,Growth inhibition zone,[12]; 800 μg on 5 mm disc,14.6 ± 0.6
same,antibacterial activity,[13]; listed as Alkaline Copper Sulfate (OH)6,antibacterial activity on all bacterial strains tested
same,antibacterial activity,[13]; listed as product of invention,spectrum of antibacterial activity greater than the hydroxyphosphate copper compounds (II) and copper oxychloride (II)
"[Cl-].[Cu+2].[Cu+2].[OH-].[OH-].[OH-] [copper oxychloride compound (II), copper oxychloride (II)]",Growth inhibition zone,[14]; 200 μg on 5 mm disc,6.0 ± 1.0 mm
same,Growth inhibition zone,[14]; 400 μg on 5 mm disc,10.3 ± 0.6 mm
same,Growth inhibition zone,[14]; 600 μg on 5 mm disc,11.7 ± 0.6 mm
same,Growth inhibition zone,[14]; 800 μg on 5 mm disc,14.0 ± 1.0 mm
same,Growth inhibition zone,[15]; 200 μg on 5 mm disc,12.0 ± 0.6 mm
same,Growth inhibition zone,[15]; 400 μg on 5 mm disc,14.3 ± 0.6 mm
same,Growth inhibition zone,[15]; 600 μg on 5 mm disc,13.7 ± 1.5 mm
same,Growth inhibition zone,[15]; 800 μg on 5 mm disc,14.6 ± 0.6 mm
same,Growth inhibition zone,[16]; 200 μg on 5 mm disc,5.0 ± 1.0 mm
same,Growth inhibition zone,[16]; 400 μg on 5 mm disc,8.0 ± 0.7 mm
same,Growth inhibition zone,[16]; 600 μg on 5 mm disc,9.0 ± 1.0 mm
same,Growth inhibition zone,[16]; 800 μg on 5 mm disc,11.0 ± 1.2 mm
same,Growth inhibition zone,[17]; 200 μg on 5 mm disc,5.0 ± 1.0 mm
same,Growth inhibition zone,[17]; 400 μg on 5 mm disc,6.0 ± 1.0 mm
same,Growth inhibition zone,[17]; 600 μg on 5 mm disc,7.0 ± 1.2 mm
same,Growth inhibition zone,[17]; 800 μg on 5 mm disc,8.0 ± 1.4 mm
same,Growth inhibition zone,[18]; 200 μg on 5 mm disc,6.0 ± 1.0 mm
same,Growth inhibition zone,[18]; 400 μg on 5 mm disc,6.0 ± 1.0 mm
same,Growth inhibition zone,[18]; 600 μg on 5 mm disc,6.0 ± 1.0 mm
same,Growth inhibition zone,[18]; 800 μg on 5 mm disc,6.0 ± 1.0 mm
same,Growth inhibition zone,[19]; 200 μg on 5 mm disc,6.0 ± 1.0 mm
same,Growth inhibition zone,[19]; 400 μg on 5 mm disc,6.0 ± 1.0 mm
same,Growth inhibition zone,[19]; 600 μg on 5 mm disc,6.0 ± 1.0 mm
same,Growth inhibition zone,[19]; 800 μg on 5 mm disc,6.0 ± 1.0 mm
same,Growth inhibition zone,[20]; 200 μg on 5 mm disc,13.3 ± 1.4 mm
same,Growth inhibition zone,[20]; 400 μg on 5 mm disc,13.0 ± 0.7 mm
same,Growth inhibition zone,[20]; 600 μg on 5 mm disc,15.0 ± 0.7 mm
same,Growth inhibition zone,[20]; 800 μg on 5 mm disc,13.3 ± 0.7 mm
same,Growth inhibition zone,[21]; 200 μg on 5 mm disc,7.3 ± 0.6 mm
same,Growth inhibition zone,[21]; 400 μg on 5 mm disc,8.7 ± 0.6 mm
same,Growth inhibition zone,[21]; 600 μg on 5 mm disc,9.7 ± 0.6 mm
same,Growth inhibition zone,[21]; 800 μg on 5 mm disc,10.0 mm
same,Growth inhibition zone,[22]; 200 μg on 5 mm disc,6.3 ± 1.5 mm
same,Growth inhibition zone,[22]; 400 μg on 5 mm disc,6.7 ± 1.2 mm
same,Growth inhibition zone,[22]; 600 μg on 5 mm disc,8.3 ± 0.6 mm
same,Growth inhibition zone,[22]; 800 μg on 5 mm disc,3.3 ± 1.7 mm
same,Growth inhibition zone,[23]; 200 μg on 5 mm disc,11.7 ± 0.6 mm
same,Growth inhibition zone,[23]; 400 μg on 5 mm disc,15.7 ± 0.6 mm
same,Growth inhibition zone,[23]; 600 μg on 5 mm disc,17.0 ± 1.0 mm
same,Growth inhibition zone,[23]; 800 μg on 5 mm disc,19.7 ± 0.6 mm
same,Growth inhibition zone,[24]; 200 μg on 5 mm disc,8.0 ± 1.0 mm
same,Growth inhibition zone,[24]; 400 μg on 5 mm disc,10.7 ± 1.5 mm
same,Growth inhibition zone,[24]; 600 μg on 5 mm disc,11.3 ± 0.6 mm
same,Growth inhibition zone,[24]; 800 μg on 5 mm disc,11.3 ± 1.5 mm
same,Growth inhibition zone,[25]; 200 μg on 5 mm disc,7.3 ± 1.5 mm
same,Growth inhibition zone,[25]; 400 μg on 5 mm disc,3.7 ± 1.5 mm
same,Growth inhibition zone,[25]; 600 μg on 5 mm disc,9.7 ± 0.6 mm
same,Growth inhibition zone,[25]; 800 μg on 5 mm disc,9.7 ± 1.5 mm
same,antibacterial activity,12 bacterial strains,"antibacterial activity against Staphylococcus aureus, Staphylococcus epidermidis, Streptococcus pyogenes, Escherichia coli and Acinetobacter baumannii"
